Measured values from US20170182080A1, “FUNCTIONAL SCAFFOLD FOR TISSUE REPAIR AND REGENERATION” (priority 2014, published 2017).

Legend:
[1] = system: rat adipose derived cells; test: Ki-67 proliferation marker immunohistochemical staining in 3D TG-Gel culture; type: cell-based
Experimental: 10^6/m1 rat adipose derived cells was suspended in the gelatin-transglutaminase crosslinked gel also referred to TG-Gel. Gel concentrations ranged from 3%, 4.5%, 6%, and 7.5%. A cell suspension in 20 μL volume was transferred in each well of 48 well culture plate followed by incubation at 37° C. for 30 min for gelation. 1.0 ml of medium (10%FBS/DMEM) with 5 nM Aza was added in each well and the plate was placed in a 5% CO2 37° C. incubator for 5 day culture. At day 5, cell proliferation marker (Ki-67) immune histochemical staining was performed on 3D culture. Medium without Aza was used as control.
The detection of Ki67, a proliferation marker, was performed using Anti-Ki-67 (Rabbit Monoclonal antibody, Clone SP6, from Thermo Scientific).

adipose cell 3D culture = test: Anti-MyoD staining, myogenesis differentiation in adipose cell 3D culture; type: cell-based; conditions: w/AZA-CR
Description: A myogenic marker such as MyoD was stained on day 14 adipose cell 3D culture. The anti-MyoD antibody is a monoclonal available from Pierce.

[2] = system: rat adipose derived cells; test: Alizarin Red S calcium deposition, osteogenic differentiation in 3D TG-Gel culture; type: cell-based; conditions: day 14
Experimental: Using the matrix as described above, the medium was changed to regular growth medium at day 5 and maintained for 14 days. Alkaline phosphatase (ALP) activity and staining were performed to characterize early osteogenesis at day 5 and calcium staining at day 14. ALP activity was determined by biochemical assay based on conversion of p-nitrophenyl phosphate to p-nitrophenol (pNPP), which was measured spectrophotometrically at 405 nm absorbance. Briefly, TG-Gel-Cell, a transglutaminase crosslinked gelatin gel and cell mixture, construct was washed twice with PBS and homogenized with buffer solution (0.25% TritonX-100 in PBS). After three freezing-thawing cycles, cells were released from TG-Gel by adding 50 μL of 0.25% trypsin and incubated at 37° C. for 4 hours. ALP activity was then quantified by using p-NPP as a substrate (Pierce, USA). The absorbance was measured by a multiplate reader (Molecular Devices, CA) after 30 minutes of incubation at 37° C. The ALP activity was specified as an arbitrary unit of ALP absorbance that normalized with cell numbers. Alizarin Red S staining as late marker of osteogenic differentiation was performed to determine the degree of calcium deposition as described. […] The supernatant was collected and absorbance was measured by a multiplate reader (Molecular Devices, CA). […]

MSC or adipose cells = test: Anti-N-cadherin staining, cardiomyocyte differentiation; type: cell-based; conditions: w/AZA-CR; 4.5% TG-Gel
Fisher rats = test: Cartilage defect model (osteochondral defect in trochlear groove), histology; type: in vivo, rat; conditions: 4.5% Tg-Gel + 50 μL Aza (500 nM) implanted in defect; at 7 days; cell morphology resembles chondrogenic cells
Experimental: (§1) Fisher rats (7-8-weeks old, 200-250 g each) were used in this study. They were randomly enrolled into two experimental groups,A, 4.5% Tg-Gel +50 μL PBS and B, 4.5% Tg-Gel +50 μL Aza (500 nM), 4 animals per group. A 3-mm diameter×2-mm deep osteochondral defect was drilled into the rat trochlear groove, using a dermal biopsy punch (Miltex, Inc.). Implant gel was placed in the defect area. Skin was closed with 4-0 suture. […]
as §1, with “Tg-Gel+50” for “Tg-Gel +50”, “diamete×2-mm” for “diameter×2-mm”

[3] = system: rat adipose derived cells; test: Alkaline phosphatase (ALP) activity, osteogenic differentiation in 3D TG-Gel culture; type: cell-based; conditions: day 5
Experimental: Using the matrix as described above, the medium was changed to regular growth medium at day 5 and maintained for 14 days. Alkaline phosphatase (ALP) activity and staining were performed to characterize early osteogenesis at day 5 and calcium staining at day 14. ALP activity was determined by biochemical assay based on conversion of p-nitrophenyl phosphate to p-nitrophenol (pNPP), which was measured spectrophotometrically at 405 nm absorbance. Briefly, TG-Gel-Cell, a transglutaminase crosslinked gelatin gel and cell mixture, construct was washed twice with PBS and homogenized with buffer solution (0.25% TritonX-100 in PBS). After three freezing-thawing cycles, cells were released from TG-Gel by adding 50 μL of 0.25% trypsin and incubated at 37° C. for 4 hours. ALP activity was then quantified by using p-NPP as a substrate (Pierce, USA). The absorbance was measured by a multiplate reader (Molecular Devices, CA) after 30 minutes of incubation at 37° C. The ALP activity was specified as an arbitrary unit of ALP absorbance that normalized with cell numbers. Alizarin Red S staining as late marker of osteogenic differentiation was performed to determine the degree of calcium deposition as described. […] The supernatant was collected and absorbance was measured by a multiplate reader (Molecular Devices, CA).

[4] = system: >8 month old retired rats; test: Cranial defect model, bone growth and healing by histology; type: in vivo, rat; conditions: 500 nM Aza in collagen sponge; 5 mm skull defect; no exogenous BMP-2; four weeks
Experimental: Collagen matrix (as described above) was prepared and cut into 5 mm discs. An 5 mm diameter circular opening was created in the skull of >8 month old retired rats using circular drill bit including a lip to restrict the depth of the circular cutting. 500 nM of Aza was applied directly into the collagen sponge before implantation. Control included collagen discs without added Aza-CR but same volume of PBS. After four weeks of implantation, bone growth and healing status were evaluated histologically.

Nc1ncn([C@@H]2O[C@H](CO)[C@@H](O)[C@H]2O)c(=O)n1 [AZA-CR, 5-azacytidine]
Ki67 positive staining, Aza group versus control ([1]; 3%-4.5% gel condition): no difference | Ki67 positive staining, Aza group versus control ([1]; 6%-7% gel condition, evenly distributed in whole 3D construct): significantly more positive stained cells | Anti - Ki67, Center ([1]; w/AZA-CR (5 nM Aza in medium), 4.5% TG-Gel, day 5): ~30% | Anti - Ki67, Center and Peripheral (evenly distributed) ([1]; w/AZA-CR (5 nM Aza in medium), 6% TG-Gel, day 5): Evenly distributed (~80%) | Anti - Ki67, Center and Peripheral (evenly distributed) ([1]; w/AZA-CR (5 nM Aza in medium), 7.5% TG-Gel, day 5): Evenly distributed (~50%) | Anti-MyoD on day 14, Center and Peripheral (evenly distributed) (adipose cell 3D culture; 4.5% TG-Gel): ~80% Evenly Distributed | Anti-MyoD on day 14, Center and Peripheral (evenly distributed) (adipose cell 3D culture; 6% TG-Gel): ~70% Evenly Distributed | calcium deposition ([2]; versus without AZA-CR): enhanced | TG-Gel concentration at which calcium deposition peaked ([2]; with and without AZA-CR): 9 % TG-Gel | Anti-N-Cadherin, Center (MSC or adipose cells): ~50% | histology of osteochondral defect site, area adjacent to subchondral bone (Fisher rats): neo cell infiltration | ALP activity ([3]; versus without AZA-CR): enhanced | TG-Gel concentration at which ALP peaked ([3]; with and without AZA-CR): 6 % TG-Gel | bone remodeling at the bony defect site [4]: significant bone remodeling
